Assay results taken from US6348477B1, “Anti-herpesvirus compounds and methods for identifying, making and using same” (Boehringer Ingelheim(Canada) Ltd., priority 1995, dated 2002).

Tests used:
[1] = molecular target: T1, HSV-1 helicase-primase (Human herpesvirus 1, UniProt P10189+P10236); assay: HSV-1 DNA-dependent ATPase assay (inhibition of HSV-1 helicase-primase); type: biochemical; conditions: Group 1 Table 1
T1 construct: made in house; host or cells: Sf21 insect cells triply infected with recombinant baculoviruses
Excerpt: A) HSV-1 DNA-Dependent ATP Assay (an in Vitro Assay Based on the Inhibition of HSV-1 Helicase-primase).
a) Preparation of enzyme: HSV-1 helicase-primase holoenzyme was produced in triply infected Sf21 cells using recombinant baculoviruses expressing the UL5, UL8 and UL52 helicase-primase subunits, as described by S. Dracheva et al., J. Biol. Chem. 1995, 270, 14148. The crude enzyme was purified by ammonium sulfate precipitation, Source 15Q® chromatography and Sephacryl® S-300 HR gel filtration (both purification systems can be obtained from Pharmacia Biotech Inc., Montreal, Quebec, Canada), see S. Dracheva et al., supra.
b) Assay: The DNA-dependent ATPase assay, described by J. J. Crute et al., Nucleic Acids Res. 1988, 16, 6585, was modified and used to evaluate the capability of the compounds of Group 1-formula 1 to inhibit HSV-1 helicase-primase activity. The reaction mixtures (80 μL each) contained 40 mM 4-(2-hydroxyethyl)-1-piperazineethanesulfonic acid (HEPES, pH 7.5), 10% (v/v) glycerol, 5.5 mM MgCl2, 1 mM DL-dithiothreitol (DTT), 50 μg/mL acetylated bovine serum albumin, 3.3% (v/v) DMSO, 4 mM ATP, 25 μM single-stranded M13 DNA hybridized to double-tailed 68-mer oligonucleotide and 3 μg/mL HSV-1 helicase-primase. After incubation for 20 min at 34°, formation of inorganic phosphate from hydrolysis of ATP was monitored spectrophotometrically at 650 nm using acidic ammonium molybdate/malachite green reagent, P. A. Lanzetta et al., Anal. Biochem. 1979, 100, 95. DNA-dependent ATPase activity was calculated from the net absorbance change in the presence and absence of inhibition.

[2] = test system: HSV-1 strain F or KOS; assay: Inhibition of herpes simplex virus (HSV-1) replication in cell culture (BHK-21 cells, glycoprotein C ELISA); type: cell-based; conditions: Group 1 Table 1
Description: B) Inhibition of Herpes Simplex Virus (HSV-1) Replication in Cell Culture
Assay: BHK-21 cells clone 13 (ATCC CCL10) were incubated for two days in 850 cm^2 roller bottles (2×10^7 cells/bottle) with α-MEM medium (Gibco Canada Inc., Burlington, Ontario, Canada) supplemented with 8% (v/v) fetal bovine serum (FBS, Gibco Canada, Inc.). The cells were trypsinized and then 3,000 cells in 100 μL of fresh medium were transferred into each well of a 96-well microtiter plate. The cells were incubated at 37° for a period of 3 days to reach a density of 50,000 cells per well. The cells were washed twice with 100 μL of α-MEM supplemented with 2% heat inactivated FBS and incubated for 1-2 hours in 100 μL of the same medium.
Thereafter, the cells were infected with HSV-1 strain F or KOS (multiplicity of infection=0.05 PFU/cell) in 50 μL of α-MEM supplemented with 2% heat inactivated FBS. Following one hour of virus absorption at 37°, the medium was removed and the cells were washed with α-MEM supplemented with 2% heat inactivated FBS (2×100 μL). The cells were incubated with or without 100 μL of the appropriate concentration of test reagent in α-MEM medium supplemented with 2% heat inactivated FBS. After 24 hours of incubation at 37°, the extent of viral replication was determined by an ELISA assay; for instance, the following assay that detects the late glycoprotein C of HSV-1.
Cells were fixed in the microtiter plate with 100 μL of 0.063% glutaraldehyde in phosphate buffered saline for 30 min at room temperature. The microtiter plate was then washed once with casein blocking solution and blocked with 200 μL of the same solution for one hour at room temperature. Thereafter, 100 μL of mAb C11 recognizing the glycoprotein C of HSV-1 (see E. Trybala et al., Journal of General Virology, 1994, 75, 743) was added to each well for two hours at room temperature. The plate was washed three times with phosphate buffered saline containing 0.05% polyoxyethylene (20) sorbitan monooleate. The cells were incubated with 100 μL of sheep anti-mouse IgG horseradish peroxidase for one hour at room temperature in the dark.
The plate was washed three times with 200 μL of the above-noted phosphate buffer saline preparation, and then once with 0.1 M sodium citrate (pH 4.5). Thereafter, 100 μL of orthophenylenediamine dihydrochloride (OPD, Gibco, Canada Inc.) was added to each well. The plate was agitated on a microplate shaker for 30 min in the dark. Color development was monitored at 450 nm using a microplate spectrophotometer.
SAS was used to calculate % inhibition of viral replication and to generate EC50 values.

[3] = test system: HCMV (strain AD169); assay: Inhibition of HCMV replication, ELISA assay (Hs-68 cells, p28); type: cell-based, human cytomegalovirus; conditions: Group 1 Table 1; read-out: ELISA CMV EC50
Description: (§1) C) Inhibition of Human Cytomegalovirus (HCMV) replication
(§2) The effect of compounds on the replication of HCMV has been measured by using an ELISA-based assay (ELISA) and a plaque reduction assay (PRA).
(§3) Hs-68 cells (ATCC # CRL 1635) were seeded in 96 well microtiter plates at 10,000 cells/well in 100 μL of DMEM medium (Gibco Canada Inc.) supplemented with 10% fetal bovine serum (FBS, Gibco Canada Inc.). The plates were incubated for 3 days at 37° to allow the cells to reach 80-90% confluency prior to the assay.
The medium was removed from wells by aspiration. The cells then were infected at a multiplicity of infection (MOI) of 0.01 PFU/cell with 50 μL of HCMV (strain AD169, ATCC VR-538) in DMEM medium supplemented with 5% heat inactivated FBS (assay medium). The virus was allowed to adsorb to cells for 2 h at 37°. Following viral adsorption, the medium was removed from the wells by aspiration. The cells were washed twice with 200 μL of assay medium to remove unabsorbed virus. The cells were then incubated with or without 100 μL of appropriate concentrations of test reagent in assay medium. After 8 days of incubation at 37°, the extent of viral replication was determined by an ELISA assay which detects the late structural protein p28 of HCMV.
Eight days after infection, the medium was aspirated from the wells. Non-specific binding sites were blocked by adding 200 μL of phosphate buffered saline containing 1% (w/v) bovine serum albumin (blocking buffer) to each well and incubating the plates for 30 min at room temperature. After removal of the blocking buffer by aspiration, the cells were fixed with 100 μL of cold ethanol-acetone solution (95:5) per well. The plates were placed at −20° for 30 min. The plates were washed 4 times with phosphate buffered saline containing 0.05% (v/v) polyoxyethylene sorbitan monolaurate (Tween 20®). Thereafter, 100 μL of mAb UL99 (Advanced Biotechnologies Inc., #13-130-100) recognizing HCMV protein p28 was added to each wells and plates were incubated for 2 h at room temperature. The plates were washed four times with 200 μL of the above-noted phosphate buffered saline/Tween-20® solution. The cells were then incubated with 100 μL of sheep anti-mouse IgGγ horseradish peroxidase conjugated for 2 h at room temperature. The plates were then washed four times with 200 μL of above-noted phosphate buffered saline/Tween-20®solution. Thereafter, 100 μL of ortho phenylenediamine dihydrochloride (OPD, Gibco Canada Inc.) solution was added to each well and the plates were agitated on a microplate shaker for 30 min in the dark. Color development was monitored at 450 nm using a microplate spectrophotometer.
The SAS program was used to calculate the % inhibition of viral replication and to generate EC50 values.
The EC50 values obtained according to this assay method for certain thiazolylphenyl derivatives of this invention are listed in the following tables under the heading ELISA CMV.

[4] = test system: HCMV (strain AD169); assay: Inhibition of HCMV replication, plaque reduction assay (PRA, Hs-68 cells); type: cell-based, human cytomegalovirus; conditions: Group 1 Table 1; read-out: PRA CMV EC50
Description: as §1, §2
as §3, with “( ATCC” for “(ATCC”, “12-well” for “96 well microtiter”, “83,000” for “10,000”, “1 mL” for “100 μL”
The medium was removed from the cells by aspiration. The cells were then infected with approximately 50 PFU of HCMV (strain AD169, ATCC VR-538) in DMEM medium supplemented with 5% inactivated FBS (assay medium). The virus was allowed to adsorb to cells for 2 h at 37°. Following viral adsorption, the medium was removed from the wells by aspiration. The cells were then incubated with or without 1 mL of appropriate concentrations of test reagent in assay medium. After 4 days of incubation at 37°, the medium was exchanged with fresh medium containing test compound and 4 days later the cells were fixed with 1% aqueous formaldehyde and stained with a 2% crystal violet solution in 20% ethanol in water. Microscopic plaques were counted using a stereomicroscope. Drug effects were calculated as a percent reduction in the number of plaques in the presence of each drug concentration compared to the number observed in the absence of drug. Ganciclovir was used as a positive control in all experiments.
The EC50 values obtained according to this assay for certain thiazolyl derivatives of this invention are listed in the following tables under the heading PRA CMV.

[5] = test system: HSV-1 acyclovir-resistant mutant strain PAA^r5; assay: Acyclovir-resistant HSV-1 PAAr5 cutaneous infection in immunodeficient nu/nu mice, oral; type: in vivo; conditions: 100 mg/kg/day oral, tid for 10 days (FIG. 1)
Description: (§4) Animals were cutaneously inoculated with 10^7 PFU of HSV-1 acyclovir resistant mutant viruses. The resulting cutaneous lesions were scored according to a subjective scoring system. The compound of Group 1 (Entry No. 29 in table 1) was administered orally (gavage) in an acidified vehicle (0.033 N aqueous HCl, tid for 10 days). Animals were similarly treated with acyclovir in 0.033 N aqueous HCl or only with the vehicle (0.033 N aqueous HCl). […] The dose-dependent effect of treatment with Entry No. 29 at 25 mg/kg/day (-♦-), 50 mg/kg/day (-▴-), 75 mg/kg/day (-□-), 100 mg/kg/day (-●-) or 125 mg/kg/day (-▪-), compared to treatment with vehicle alone (-∘-), is shown in FIG. 2. The ED50 of Entry No. 29 was about 60 mg/kg/day. Similar experiments were done using the HSV-1 acyclovir-resistant mutant strain dlsptk (FIGS. 3 and 4). […] The dose-dependent effect of treatment with Entry No. 29 at 25 mg/kg/day (-♦-), 50 mg/kg/day (▴-), 75 mg/kg/day (-□-), 100 mg/kg/day (-●-) or 125 mg/kg/day (-▪-), compared to treatment with vehicle alone (-∘-), is shown in FIG. 4. The acyclovir-resistant HSV-1 strains, PAA^r5 and dlsptk, have been described by P. A. Furman et al., J. Virol., 1981, 40, 936 and by D. M. Coen et al., Proc. Natl. Acad. Sci., 1989, 86, 4736, respectively.

[6] = test system: HSV-1 acyclovir-resistant mutant strain dlsptk; assay: Acyclovir-resistant HSV-1 dlsptk cutaneous infection in immunodeficient nu/nu mice, oral; type: in vivo; conditions: 100 mg/kg/day oral, tid for 10 days (FIG. 3)
Description: as §4

T1 sequence (P10189 whole entry): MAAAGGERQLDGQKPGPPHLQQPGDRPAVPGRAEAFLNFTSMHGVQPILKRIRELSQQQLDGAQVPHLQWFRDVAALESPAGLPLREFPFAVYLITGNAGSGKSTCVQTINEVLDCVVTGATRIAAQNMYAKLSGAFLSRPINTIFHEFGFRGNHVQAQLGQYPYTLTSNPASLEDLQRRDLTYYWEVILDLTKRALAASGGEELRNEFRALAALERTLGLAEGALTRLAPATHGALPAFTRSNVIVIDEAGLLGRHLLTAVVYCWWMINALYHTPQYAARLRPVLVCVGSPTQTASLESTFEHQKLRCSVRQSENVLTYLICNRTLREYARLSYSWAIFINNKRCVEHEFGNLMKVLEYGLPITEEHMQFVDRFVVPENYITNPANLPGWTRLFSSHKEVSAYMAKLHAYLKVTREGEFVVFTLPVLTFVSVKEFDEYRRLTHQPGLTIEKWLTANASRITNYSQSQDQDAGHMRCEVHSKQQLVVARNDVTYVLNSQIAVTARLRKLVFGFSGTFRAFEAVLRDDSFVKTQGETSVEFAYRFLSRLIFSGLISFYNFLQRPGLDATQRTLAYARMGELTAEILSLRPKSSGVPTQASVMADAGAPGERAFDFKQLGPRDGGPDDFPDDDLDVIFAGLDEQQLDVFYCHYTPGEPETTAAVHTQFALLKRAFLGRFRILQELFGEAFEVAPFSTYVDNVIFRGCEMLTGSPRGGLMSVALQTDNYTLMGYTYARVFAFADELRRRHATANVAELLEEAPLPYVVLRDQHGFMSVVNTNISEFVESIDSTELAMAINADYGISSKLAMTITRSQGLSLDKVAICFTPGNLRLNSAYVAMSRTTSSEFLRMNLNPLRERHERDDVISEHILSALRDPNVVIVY
T1 sequence (P10192 whole entry, further chain): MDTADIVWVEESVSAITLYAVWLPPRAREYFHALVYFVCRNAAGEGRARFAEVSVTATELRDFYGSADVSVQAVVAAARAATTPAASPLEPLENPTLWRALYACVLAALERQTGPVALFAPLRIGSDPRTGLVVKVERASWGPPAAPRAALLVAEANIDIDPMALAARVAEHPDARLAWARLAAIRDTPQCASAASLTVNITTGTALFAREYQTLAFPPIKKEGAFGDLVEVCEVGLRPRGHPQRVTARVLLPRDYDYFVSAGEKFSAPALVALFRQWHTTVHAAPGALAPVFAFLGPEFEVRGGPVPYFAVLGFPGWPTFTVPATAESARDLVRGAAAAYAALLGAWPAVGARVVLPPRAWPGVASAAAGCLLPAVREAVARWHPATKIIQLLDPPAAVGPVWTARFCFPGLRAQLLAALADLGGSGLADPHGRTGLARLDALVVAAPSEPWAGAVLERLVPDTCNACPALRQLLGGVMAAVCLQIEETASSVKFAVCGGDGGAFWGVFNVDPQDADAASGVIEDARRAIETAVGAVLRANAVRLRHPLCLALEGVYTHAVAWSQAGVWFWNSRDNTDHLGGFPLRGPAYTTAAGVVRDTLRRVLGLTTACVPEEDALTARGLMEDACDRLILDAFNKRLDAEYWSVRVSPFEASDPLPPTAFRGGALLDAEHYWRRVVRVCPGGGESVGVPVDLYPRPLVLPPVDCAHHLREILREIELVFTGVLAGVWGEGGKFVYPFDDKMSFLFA
T1 sequence (P10236 whole entry): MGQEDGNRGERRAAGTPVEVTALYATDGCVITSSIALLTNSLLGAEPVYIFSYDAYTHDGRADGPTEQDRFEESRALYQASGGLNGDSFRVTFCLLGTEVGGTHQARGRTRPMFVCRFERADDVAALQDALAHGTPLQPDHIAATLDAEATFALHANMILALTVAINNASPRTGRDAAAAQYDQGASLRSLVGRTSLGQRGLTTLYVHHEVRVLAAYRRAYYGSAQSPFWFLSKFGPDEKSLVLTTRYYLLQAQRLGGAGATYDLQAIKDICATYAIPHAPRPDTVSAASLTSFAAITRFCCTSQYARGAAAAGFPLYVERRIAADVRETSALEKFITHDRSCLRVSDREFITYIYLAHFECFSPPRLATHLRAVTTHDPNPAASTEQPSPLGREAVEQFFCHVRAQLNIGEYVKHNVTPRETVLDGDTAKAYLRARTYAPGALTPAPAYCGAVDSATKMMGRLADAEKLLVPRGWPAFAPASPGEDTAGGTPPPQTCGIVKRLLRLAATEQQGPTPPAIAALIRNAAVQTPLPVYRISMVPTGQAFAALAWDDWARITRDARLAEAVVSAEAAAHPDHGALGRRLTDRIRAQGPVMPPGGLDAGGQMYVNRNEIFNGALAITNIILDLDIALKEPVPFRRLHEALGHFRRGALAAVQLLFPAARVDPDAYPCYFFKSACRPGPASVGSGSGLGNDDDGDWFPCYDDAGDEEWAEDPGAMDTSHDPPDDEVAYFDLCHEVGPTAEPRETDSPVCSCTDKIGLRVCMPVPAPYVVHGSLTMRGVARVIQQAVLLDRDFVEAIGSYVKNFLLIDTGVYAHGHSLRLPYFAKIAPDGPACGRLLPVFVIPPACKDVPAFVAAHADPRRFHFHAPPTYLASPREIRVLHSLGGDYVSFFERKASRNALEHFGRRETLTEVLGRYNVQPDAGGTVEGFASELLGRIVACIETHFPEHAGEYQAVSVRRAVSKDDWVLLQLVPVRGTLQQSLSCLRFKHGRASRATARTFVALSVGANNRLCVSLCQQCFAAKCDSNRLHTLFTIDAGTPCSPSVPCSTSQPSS

| SMILES | IC50 [1] [nM] | EC50 [2] [nM] | EC50 [3] [nM] | EC50 [4] [nM] | effect on cutaneous lesions [5] | effect on cutaneous lesions [6] |
| --- | --- | --- | --- | --- | --- | --- |
| Nc1nc(-c2ccc(NC(=O)CN(CC3CCCCC3)C(=O)c3cccnc3)cc2)cs1 [Example 64] | 2500 | 1700 | 750 | 20000 | – | – |
| CC(c1ccccc1)N(CC(=O)Nc1ccc(-c2csc(N)n2)cc1)C(=O)OC(C)(C)C (stereo not drawn) [Example 89] | 98 | 36 | 900 | 38000 | – | – |
| CC(c1ccccc1)N(CC(=O)Nc1ccc(-c2csc(N)n2)cc1)C(=O)C1CCCCC1 (stereo not drawn) [Example 53] | 38 | 3 | 3200 | 12000 | – | – |
| CC(c1ccccc1)N(CC(=O)Nc1ccc(-c2csc(N)n2)cc1)C(=O)C1CCCCC1 (stereo not drawn) [Example 52] | 87 | 13 | 1300 | 6000 | – | – |
| Nc1nc2c(ncn2COCCO)c(=O)[nH]1 [acyclovir] | – | – | – | – | no effect | no effect |
